Experimental data reported in PMC4685510, “A Cell Biologist’s Field Guide to Aurora Kinase Inhibitors” (Frontiers in Oncology, 2015).
Like-named read-outs stand apart in the source and are kept apart here.

Assays:
Test in all cases: biochemical
Assay type in all cases: biochemical
[1] = biological target: 363 human kinases (including Aurora A/B/C) (Homo sapiens, UniProt P00533); conditions: EGFR, [ATP] 1 µM; for remaining activity at 0.1 µM: 100 nM; for remaining activity at 0.1 µM / remaining activity at 0.5 µM: read-out: % Enzyme Activity (relative to DMSO controls)
From the text: (§1) However, the Aurora A/B selectivity ratios derived from our in vitro and in vivo data can be compared to prioritize inhibitors.

[2] = biological target: 363 human kinases (including Aurora A/B/C) (Homo sapiens, UniProt Q96GD4); conditions: for remaining activity at 0.1 µM / remaining activity at 0.5 µM: read-out: % Enzyme Activity (relative to DMSO controls)
From the text: as §1

[3] = biological target: 363 human kinases (including Aurora A/B/C) (Homo sapiens, UniProt P36894); conditions: ALK3/BMPR1A, [ATP] 1 µM; for remaining activity at 0.1 µM: 100 nM; for remaining activity at 0.1 µM / remaining activity at 0.5 µM: read-out: % Enzyme Activity (relative to DMSO controls)
From the text: as §1

[4] = biological target: T1, 363 human kinases (including Aurora A/B/C) (Homo sapiens, UniProt O94806); conditions: PKCnu/PRKD3; for remaining activity at 0.1 µM: 100 nM; for remaining activity at 0.1 µM / remaining activity at 0.5 µM: read-out: % Enzyme Activity (relative to DMSO controls)
T1 sequence (O94806 1-890): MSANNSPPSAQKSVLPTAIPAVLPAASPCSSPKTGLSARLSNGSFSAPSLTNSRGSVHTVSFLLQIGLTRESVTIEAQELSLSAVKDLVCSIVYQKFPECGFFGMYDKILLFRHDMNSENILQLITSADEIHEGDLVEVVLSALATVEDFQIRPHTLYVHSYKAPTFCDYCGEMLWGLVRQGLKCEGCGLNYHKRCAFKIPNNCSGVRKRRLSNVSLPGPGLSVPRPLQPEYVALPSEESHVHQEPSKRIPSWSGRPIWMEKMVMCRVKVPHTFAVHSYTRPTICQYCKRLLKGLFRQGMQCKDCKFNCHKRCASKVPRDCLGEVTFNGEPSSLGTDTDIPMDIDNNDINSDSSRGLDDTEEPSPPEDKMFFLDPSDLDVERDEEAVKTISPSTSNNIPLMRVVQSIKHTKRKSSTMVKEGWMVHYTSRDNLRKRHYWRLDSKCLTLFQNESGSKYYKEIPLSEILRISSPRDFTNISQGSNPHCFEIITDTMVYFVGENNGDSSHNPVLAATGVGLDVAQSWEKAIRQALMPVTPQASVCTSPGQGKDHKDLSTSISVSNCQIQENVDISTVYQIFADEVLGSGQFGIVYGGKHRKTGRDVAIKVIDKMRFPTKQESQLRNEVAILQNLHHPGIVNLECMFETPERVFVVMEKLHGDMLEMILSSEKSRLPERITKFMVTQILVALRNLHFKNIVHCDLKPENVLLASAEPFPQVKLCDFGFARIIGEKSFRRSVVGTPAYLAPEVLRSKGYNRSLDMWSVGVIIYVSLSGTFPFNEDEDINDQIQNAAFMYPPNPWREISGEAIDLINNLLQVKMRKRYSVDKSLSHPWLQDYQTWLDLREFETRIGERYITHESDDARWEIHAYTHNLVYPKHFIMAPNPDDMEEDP
From the text: as §1

[5] = biological target: T2, 363 human kinases (including Aurora A/B/C) (Homo sapiens, UniProt O15264); conditions: P38d/MAPK13; for remaining activity at 0.1 µM: 100 nM; for remaining activity at 0.1 µM / remaining activity at 0.5 µM: read-out: % Enzyme Activity (relative to DMSO controls)
T2 sequence (O15264 1-365): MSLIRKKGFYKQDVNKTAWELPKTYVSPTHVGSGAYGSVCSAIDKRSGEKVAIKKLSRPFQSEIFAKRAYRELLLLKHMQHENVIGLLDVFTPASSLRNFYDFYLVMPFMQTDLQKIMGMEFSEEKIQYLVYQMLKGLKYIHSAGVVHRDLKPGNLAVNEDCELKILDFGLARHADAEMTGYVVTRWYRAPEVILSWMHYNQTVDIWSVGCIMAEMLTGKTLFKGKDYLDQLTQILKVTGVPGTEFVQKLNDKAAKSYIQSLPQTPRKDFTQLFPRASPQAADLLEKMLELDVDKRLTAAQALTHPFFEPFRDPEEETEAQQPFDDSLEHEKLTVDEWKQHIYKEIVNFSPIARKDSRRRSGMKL
From the text: as §1

[6] = biological target: T3, 363 human kinases (including Aurora A/B/C) (Homo sapiens, UniProt O95835); conditions: LATS1; for remaining activity at 0.1 µM: 100 nM; for remaining activity at 0.1 µM / remaining activity at 0.5 µM: read-out: % Enzyme Activity (relative to DMSO controls)
T3 sequence (O95835 1-1130): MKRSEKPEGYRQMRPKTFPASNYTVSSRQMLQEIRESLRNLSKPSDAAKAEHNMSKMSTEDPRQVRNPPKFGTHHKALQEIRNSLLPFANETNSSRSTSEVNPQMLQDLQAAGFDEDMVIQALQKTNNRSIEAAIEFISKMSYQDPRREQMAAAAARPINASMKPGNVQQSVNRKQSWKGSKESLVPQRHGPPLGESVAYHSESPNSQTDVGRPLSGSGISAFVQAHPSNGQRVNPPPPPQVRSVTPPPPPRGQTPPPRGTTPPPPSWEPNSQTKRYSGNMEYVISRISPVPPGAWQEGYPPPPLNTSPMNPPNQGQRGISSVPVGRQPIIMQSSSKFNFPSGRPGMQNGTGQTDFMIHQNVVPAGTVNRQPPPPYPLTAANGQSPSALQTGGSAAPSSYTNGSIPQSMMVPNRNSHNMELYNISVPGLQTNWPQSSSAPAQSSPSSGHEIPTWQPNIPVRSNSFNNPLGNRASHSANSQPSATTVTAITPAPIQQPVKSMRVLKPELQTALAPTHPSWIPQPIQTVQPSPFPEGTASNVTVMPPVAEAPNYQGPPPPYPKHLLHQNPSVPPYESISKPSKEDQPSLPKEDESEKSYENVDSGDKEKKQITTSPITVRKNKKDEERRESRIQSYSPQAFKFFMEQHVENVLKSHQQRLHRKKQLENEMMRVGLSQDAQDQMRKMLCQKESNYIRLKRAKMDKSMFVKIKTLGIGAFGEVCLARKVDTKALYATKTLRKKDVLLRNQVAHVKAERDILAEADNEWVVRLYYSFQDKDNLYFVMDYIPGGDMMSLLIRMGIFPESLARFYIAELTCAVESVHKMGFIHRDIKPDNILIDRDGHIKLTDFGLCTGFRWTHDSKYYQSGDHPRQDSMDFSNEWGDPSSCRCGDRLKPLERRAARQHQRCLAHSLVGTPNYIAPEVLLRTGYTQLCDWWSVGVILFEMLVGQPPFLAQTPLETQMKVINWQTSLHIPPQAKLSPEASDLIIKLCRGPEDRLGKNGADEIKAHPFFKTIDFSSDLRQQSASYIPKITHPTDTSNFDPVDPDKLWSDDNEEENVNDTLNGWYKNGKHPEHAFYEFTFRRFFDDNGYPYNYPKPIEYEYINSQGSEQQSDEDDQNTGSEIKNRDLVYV
From the text: as §1

[7] = biological target: 363 human kinases (including Aurora A/B/C) (Homo sapiens, UniProt P06241); conditions: FYN; for remaining activity at 0.1 µM: 100 nM; for remaining activity at 0.1 µM / remaining activity at 0.5 µM: read-out: % Enzyme Activity (relative to DMSO controls)
From the text: as §1

[8] = biological target: 363 human kinases (including Aurora A/B/C) (Homo sapiens, UniProt Q9H422); conditions: HIPK3; for remaining activity at 0.1 µM: 100 nM; for remaining activity at 0.1 µM / remaining activity at 0.5 µM: read-out: % Enzyme Activity (relative to DMSO controls)
363 human kinases (including Aurora A/B/C) (Homo sapiens, UniProt Q9H422), sequence (Q9H422 whole entry): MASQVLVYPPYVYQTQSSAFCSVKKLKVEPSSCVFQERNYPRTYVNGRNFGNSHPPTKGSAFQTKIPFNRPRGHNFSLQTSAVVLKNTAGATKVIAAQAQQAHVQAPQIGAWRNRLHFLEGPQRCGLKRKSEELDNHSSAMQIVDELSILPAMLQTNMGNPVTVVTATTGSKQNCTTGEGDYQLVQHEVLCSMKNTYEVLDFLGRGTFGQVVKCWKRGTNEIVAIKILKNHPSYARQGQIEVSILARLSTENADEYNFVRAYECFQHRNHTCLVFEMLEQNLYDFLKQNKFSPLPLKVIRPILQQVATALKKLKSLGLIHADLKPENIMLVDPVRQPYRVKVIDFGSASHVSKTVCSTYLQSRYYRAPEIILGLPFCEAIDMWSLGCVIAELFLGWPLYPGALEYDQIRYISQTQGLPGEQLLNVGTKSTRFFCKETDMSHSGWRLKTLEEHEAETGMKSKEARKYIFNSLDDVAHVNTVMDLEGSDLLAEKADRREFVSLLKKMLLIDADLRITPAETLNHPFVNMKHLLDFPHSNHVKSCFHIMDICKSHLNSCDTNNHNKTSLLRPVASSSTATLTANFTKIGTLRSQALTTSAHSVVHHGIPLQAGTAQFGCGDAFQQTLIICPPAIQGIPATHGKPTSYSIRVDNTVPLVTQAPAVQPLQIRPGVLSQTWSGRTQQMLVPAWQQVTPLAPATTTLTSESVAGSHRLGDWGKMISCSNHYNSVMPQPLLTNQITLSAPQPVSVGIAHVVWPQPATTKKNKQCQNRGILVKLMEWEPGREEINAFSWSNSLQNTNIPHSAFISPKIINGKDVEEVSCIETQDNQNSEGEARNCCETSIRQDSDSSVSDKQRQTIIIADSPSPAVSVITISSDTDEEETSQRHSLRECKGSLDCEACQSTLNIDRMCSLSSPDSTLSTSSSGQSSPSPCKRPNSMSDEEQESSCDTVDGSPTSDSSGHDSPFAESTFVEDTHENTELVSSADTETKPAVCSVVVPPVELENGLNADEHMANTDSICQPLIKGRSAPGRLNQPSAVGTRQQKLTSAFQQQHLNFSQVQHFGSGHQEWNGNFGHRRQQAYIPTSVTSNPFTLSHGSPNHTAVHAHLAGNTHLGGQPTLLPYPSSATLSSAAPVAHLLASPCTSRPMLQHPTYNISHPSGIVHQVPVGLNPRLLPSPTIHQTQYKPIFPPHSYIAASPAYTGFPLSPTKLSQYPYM
From the text: as §1

363 human kinases (including Aurora A/B/C) (Homo sapiens, UniProt P36894), sequence (P36894 24-532): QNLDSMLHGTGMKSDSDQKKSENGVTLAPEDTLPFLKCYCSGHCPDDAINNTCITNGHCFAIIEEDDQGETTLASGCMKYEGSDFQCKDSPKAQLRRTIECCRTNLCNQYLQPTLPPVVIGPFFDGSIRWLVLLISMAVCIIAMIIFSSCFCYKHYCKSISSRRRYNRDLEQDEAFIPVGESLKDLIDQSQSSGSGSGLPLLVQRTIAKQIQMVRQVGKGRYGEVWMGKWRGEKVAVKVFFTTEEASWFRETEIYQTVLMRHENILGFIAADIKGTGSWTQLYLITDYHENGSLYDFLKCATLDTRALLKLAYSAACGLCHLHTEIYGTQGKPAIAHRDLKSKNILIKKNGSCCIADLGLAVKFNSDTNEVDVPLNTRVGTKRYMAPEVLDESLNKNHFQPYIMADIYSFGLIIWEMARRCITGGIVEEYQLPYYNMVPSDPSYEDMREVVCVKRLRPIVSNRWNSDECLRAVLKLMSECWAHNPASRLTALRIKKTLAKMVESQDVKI
363 human kinases (including Aurora A/B/C) (Homo sapiens, UniProt Q96GD4), sequence (Q96GD4 whole entry): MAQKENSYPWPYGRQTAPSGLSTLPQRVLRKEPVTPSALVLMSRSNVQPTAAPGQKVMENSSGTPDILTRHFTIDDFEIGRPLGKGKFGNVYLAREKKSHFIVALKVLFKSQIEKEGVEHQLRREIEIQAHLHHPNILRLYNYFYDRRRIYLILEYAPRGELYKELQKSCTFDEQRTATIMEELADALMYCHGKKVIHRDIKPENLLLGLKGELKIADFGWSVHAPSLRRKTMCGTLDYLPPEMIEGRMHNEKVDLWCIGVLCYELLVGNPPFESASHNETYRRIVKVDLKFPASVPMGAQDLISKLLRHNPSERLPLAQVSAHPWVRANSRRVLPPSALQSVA
363 human kinases (including Aurora A/B/C) (Homo sapiens, UniProt P00533), sequence (P00533 25-1210): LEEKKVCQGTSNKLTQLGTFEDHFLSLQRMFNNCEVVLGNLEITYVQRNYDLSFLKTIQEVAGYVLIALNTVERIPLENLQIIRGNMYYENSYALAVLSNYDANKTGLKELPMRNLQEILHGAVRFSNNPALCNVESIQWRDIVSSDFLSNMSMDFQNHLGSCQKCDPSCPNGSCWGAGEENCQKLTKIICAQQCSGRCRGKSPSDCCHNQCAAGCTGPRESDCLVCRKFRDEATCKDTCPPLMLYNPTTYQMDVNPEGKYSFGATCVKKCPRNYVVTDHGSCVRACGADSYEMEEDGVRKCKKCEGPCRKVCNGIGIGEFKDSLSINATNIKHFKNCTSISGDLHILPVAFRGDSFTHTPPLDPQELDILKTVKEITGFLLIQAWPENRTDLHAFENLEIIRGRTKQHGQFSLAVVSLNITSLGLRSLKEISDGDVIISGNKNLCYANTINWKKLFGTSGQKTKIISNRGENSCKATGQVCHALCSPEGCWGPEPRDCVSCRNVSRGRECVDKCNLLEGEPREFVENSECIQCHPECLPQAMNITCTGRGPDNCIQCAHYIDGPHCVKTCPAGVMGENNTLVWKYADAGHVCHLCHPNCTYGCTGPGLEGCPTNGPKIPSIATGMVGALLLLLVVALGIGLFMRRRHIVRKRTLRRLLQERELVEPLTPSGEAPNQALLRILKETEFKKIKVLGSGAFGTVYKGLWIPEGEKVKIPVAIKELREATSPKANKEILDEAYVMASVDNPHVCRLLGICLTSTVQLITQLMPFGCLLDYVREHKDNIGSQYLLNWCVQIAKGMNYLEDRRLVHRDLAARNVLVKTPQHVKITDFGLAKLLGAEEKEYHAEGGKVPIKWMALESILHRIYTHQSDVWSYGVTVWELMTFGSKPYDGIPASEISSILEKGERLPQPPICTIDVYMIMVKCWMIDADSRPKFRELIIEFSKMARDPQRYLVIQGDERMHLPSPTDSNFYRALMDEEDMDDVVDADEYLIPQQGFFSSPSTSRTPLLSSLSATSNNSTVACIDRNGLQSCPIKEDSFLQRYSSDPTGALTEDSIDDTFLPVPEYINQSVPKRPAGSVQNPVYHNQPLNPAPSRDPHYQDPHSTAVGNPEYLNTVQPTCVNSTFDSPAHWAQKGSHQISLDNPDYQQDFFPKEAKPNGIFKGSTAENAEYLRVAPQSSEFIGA
363 human kinases (including Aurora A/B/C) (Homo sapiens, UniProt P06241), sequence (P06241 whole entry): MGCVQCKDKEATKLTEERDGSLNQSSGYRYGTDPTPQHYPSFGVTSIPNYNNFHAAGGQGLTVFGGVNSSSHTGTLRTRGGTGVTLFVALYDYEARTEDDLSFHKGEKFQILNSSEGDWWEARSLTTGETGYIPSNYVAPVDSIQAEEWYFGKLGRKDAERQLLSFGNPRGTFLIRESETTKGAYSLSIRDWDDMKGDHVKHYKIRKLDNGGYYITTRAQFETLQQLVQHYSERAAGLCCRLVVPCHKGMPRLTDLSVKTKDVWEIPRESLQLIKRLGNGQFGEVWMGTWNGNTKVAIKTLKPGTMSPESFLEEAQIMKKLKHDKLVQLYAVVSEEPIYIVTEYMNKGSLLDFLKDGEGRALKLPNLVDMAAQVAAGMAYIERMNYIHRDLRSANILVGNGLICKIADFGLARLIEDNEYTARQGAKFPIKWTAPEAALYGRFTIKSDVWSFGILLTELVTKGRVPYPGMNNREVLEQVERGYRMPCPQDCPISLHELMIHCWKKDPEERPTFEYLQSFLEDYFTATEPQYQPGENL

SMILES	remaining activity at 0.1 µM [1] [%]	remaining activity at 0.1 µM [2] [%]	remaining activity at 0.1 µM [3] [%]	remaining activity at 0.1 µM [4] [%]	remaining activity at 0.1 µM [5] [%]	remaining activity at 0.1 µM [6] [%]	remaining activity at 0.1 µM [7] [%]	remaining activity at 0.1 µM [8] [%]	remaining activity at 0.5 µM ([1]; 500 nM) [%]	remaining activity at 0.5 µM ([3]; 500 nM) [%]	remaining activity at 0.5 µM ([4]; 500 nM) [%]	remaining activity at 0.5 µM ([5]; 500 nM) [%]	remaining activity at 0.5 µM ([6]; 500 nM) [%]	remaining activity at 0.5 µM ([7]; 500 nM) [%]	remaining activity at 0.5 µM ([8]; 500 nM) [%]	further results
CCn1cc(-c2ccnc3[nH]c(-c4cccc(CN(C)C)c4)cc23)c(-c2ccc(NC(=O)N(C)C)cc2)n1 [GSK1070916]	54.6	12.8	87.6	76.8	91.7	97.5	84.3	106	–	–	–	–	–	–	–	–
O=C(O)[C@]1(Cc2cccc(Nc3nccs3)n2)CC[C@@H](Oc2cccc(Cl)c2F)CC1 [MK-5108]	67.3	9.6	64.3	97.1	98.5	98.5	43.9	97	33.9	49.6	87.9	82.6	94.1	18	70	remaining activity at 0.5 µM [2]: 2.85%
O=C(c1cccc(Cl)c1F)N1CCN(Cc2cccc(Nc3nccs3)n2)CC1 [MK-8745]	–	–	–	–	–	–	–	–	99.1	84.6	79	100	96.8	57.8	105	% Enzyme Activity (relative to DMSO controls) ([1]; 500 nM): 97.09%; % Enzyme Activity (relative to DMSO controls) ([2]; Aurora B, [ATP] 100 µM, 500 nM): 59.14%; remaining activity at 0.5 µM ([2]; Aurora B, [ATP] 100 µM, 500 nM): 62.3%; % Enzyme Activity (relative to DMSO controls) ([3]; 500 nM): 83.31%; % Enzyme Activity (relative to DMSO controls) ([4]; 500 nM): 75.68%; % Enzyme Activity (relative to DMSO controls) ([5]; 500 nM): 96.82%; % Enzyme Activity (relative to DMSO controls) ([6]; 500 nM): 96.46%; % Enzyme Activity (relative to DMSO controls) ([7]; 500 nM): 57.68%; % Enzyme Activity (relative to DMSO controls) ([8]; 500 nM): 105.35%
